≈ marks a conversion by molar mass, not a printed value.
Assays:
Format in all cases: functional
Streptococcus pyogenes [1] = assay: Bacteriostatic activity against Streptococcus pyogenes 12-207 expressing mef after 20 to 24 hrs by two-fold microbroth dilution method
Haemophilus influenzae [2] = assay: Bactericidal activity against azithromycin-susceptible Haemophilus influenzae ATCC 49247 incubated for 20 to 24 hrs followed by sub-culturing for 24 hrs in absence of compound
Haemophilus influenzae [3] = assay: Bacteriostatic activity against azithromycin-susceptible/ampicillin-resistant Haemophilus influenzae 11P307 after 20 to 24 hrs by two-fold microbroth dilution method
Staphylococcus aureus [4] = assay: Ratio of MBC to MIC against methicillin-resistant Staphylococcus aureus PU32 expressing inducible ermA
Moraxella catarrhalis [5] = assay: Bacteriostatic activity against erythromycin-susceptible Moraxella catarrhalis 11B366 after 20 hrs by two-fold microbroth dilution method; conditions: 11B366, 20 h
Streptococcus pneumoniae [6] = assay: Bactericidal activity against penicillin-susceptible Streptococcus pneumoniae PU09 incubated for 20 to 24 hrs followed by sub-culturing for 24 hrs in absence of compound
Moraxella catarrhalis [7] = assay: Bactericidal activity against erythromycin-susceptible Moraxella catarrhalis 13L332 incubated for 20 hrs followed by sub-culturing for 24 hrs in absence of compound
Streptococcus pyogenes [8] = assay: Bactericidal activity against Streptococcus pyogenes 01-968 expressing inducible ermA incubated for 20 to 24 hrs followed by sub-culturing for 24 hrs in absence of compound
Streptococcus pneumoniae [9] = assay: Ratio of MBC to MIC for […] Streptococcus pneumoniae ATCC 49619
Streptococcus pyogenes [10] = assay: Bactericidal activity against Streptococcus pyogenes 12-207 expressing mef incubated for 20 to 24 hrs followed by sub-culturing for 24 hrs in absence of compound
Staphylococcus aureus [11] = assay: Bacteriostatic activity against methicillin-resistant Staphylococcus aureus PU20 expressing constitutive ermC after 20 hrs by two-fold microbroth dilution method; conditions: PU20, 20 h
Moraxella catarrhalis [12] = assay: Bactericidal activity against erythromycin-susceptible Moraxella catarrhalis 11B366 incubated for 20 hrs followed by sub-culturing for 24 hrs in absence of compound
Moraxella catarrhalis [13] = assay: Ratio of MBC to MIC against erythromycin-susceptible Moraxella catarrhalis 11B366
Streptococcus pneumoniae [14] = assay: Bacteriostatic activity against […] Streptococcus pneumoniae ATCC 49619 after 20 to 24 hrs by two-fold microbroth dilution method
Moraxella catarrhalis [15] = assay: Ratio of MBC to MIC against erythromycin-susceptible Moraxella catarrhalis 13L332
Haemophilus influenzae [16] = assay: Bacteriostatic activity against azithromycin-susceptible Haemophilus influenzae ATCC 49247 after 20 to 24 hrs by two-fold microbroth dilution method
Streptococcus pyogenes [17] = assay: Bacteriostatic activity against Streptococcus pyogenes 01-968 expressing inducible ermA after 20 to 24 hrs by two-fold microbroth dilution method
Haemophilus influenzae [18] = assay: Bactericidal activity against azithromycin susceptible/ampicillin-resistant Haemophilus influenzae 11P307 incubated for 20 to 24 hrs followed by sub-culturing for 24 hrs in absence of compound
Haemophilus influenzae [19] = assay: Ratio of MBC to MIC against azithromycin-susceptible Haemophilus influenzae ATCC 49247
Streptococcus pyogenes [20] = assay: Ratio of MBC to MIC for Streptococcus pyogenes 12-207 expressing mef
Streptococcus pyogenes [21] = assay: Ratio of MBC to MIC for Streptococcus pyogenes 01-968 expressing inducible ermA
Haemophilus influenzae [22] = assay: Ratio of MBC to MIC for azithromycin susceptible/ampicillin-resistant Haemophilus influenzae 11P307
Staphylococcus aureus [23] = assay: Bactericidal activity against methicillin-resistant Staphylococcus aureus PU32 expressing inducible ermA incubated for 20 hrs followed by sub-culturing for 24 hrs in absence of compound
Staphylococcus aureus [24] = assay: Bacteriostatic activity against methicillin-resistant Staphylococcus aureus PU32 expressing inducible ermA after 20 hrs by two-fold microbroth dilution method; conditions: PU32, 20 h
Streptococcus pneumoniae [25] = assay: Bactericidal activity against […] Streptococcus pneumoniae ATCC 49619 incubated for 20 to 24 hrs followed by sub-culturing for 24 hrs in absence of compound
Moraxella catarrhalis [26] = assay: Bacteriostatic activity against erythromycin-susceptible Moraxella catarrhalis 13L332 after 20 hrs by two-fold microbroth dilution method; conditions: 13L332, 20 h
Streptococcus pneumoniae [27] = assay: Bacteriostatic activity against penicillin-susceptible Streptococcus pneumoniae PU09 after 20 to 24 hrs by two-fold microbroth dilution method
Streptococcus pneumoniae [28] = assay: Ratio of MBC to MIC for penicillin-susceptible Streptococcus pneumoniae PU09
Staphylococcus aureus [29] = assay: Bactericidal activity against methicillin-resistant Staphylococcus aureus PU20 expressing constitutive ermC incubated for 20 hrs followed by sub-culturing for 24 hrs in absence of compound
Staphylococcus aureus [30] = assay: Ratio of MBC to MIC for methicillin-resistant Staphylococcus aureus PU20 expressing constitutive ermC

Row | Structure (SMILES) | MIC (Streptococcus pyogenes [1]) | MBC (Haemophilus influenzae [2]) | MIC (Haemophilus influenzae [3]) | Ratio (Staphylococcus aureus [4]) | MBC (Streptococcus pneumoniae [6]) | MBC (Streptococcus pyogenes [8]) | MIC (Staphylococcus aureus [11]) | MIC (Streptococcus pneumoniae [14]) | MIC (Haemophilus influenzae [16]) | MIC (Streptococcus pyogenes [17]) | MBC (Haemophilus influenzae [18]) | Ratio (Haemophilus influenzae [19]) | Ratio (Streptococcus pyogenes [21]) | Ratio (Haemophilus influenzae [22]) | MBC (Staphylococcus aureus [23]) | MIC (Staphylococcus aureus [24]) | MBC (Streptococcus pneumoniae [25]) | MIC (Streptococcus pneumoniae [27]) | Ratio (Streptococcus pneumoniae [28]) | MBC (Staphylococcus aureus [29]) | other results
1 | CC[C@H]1OC(=O)[C@H](C)C(=O)[C@H](C)[C@@H](O[C@@H]2O[C@H](C)C[C@H](N(C)C)[C@H]2O)[C@](C)(OC)C[C@@H](C)C(=O)[C@H](C)[C@H]2N(CCCCn3cnc(-c4cccnc4)c3)C(=O)O[C@]12C [TELITHROMYCIN] | 0.5 µg/mL (≈ 0.616 µM) | 8 µg/mL (≈ 9.85 µM) | 1 to 4 µg/mL (≈ 1.23 to 4.93 µM) | >8 | 0.5 to 1 µg/mL (≈ 0.616 to 1.23 µM) | 0.125 to 0.5 µg/mL (≈ 0.154 to 0.616 µM) | > 256 µg/mL | 0.016 to 0.031 µg/mL (≈ 0.0197 to 0.0382 µM) | 8 µg/mL (≈ 9.85 µM) | 0.062 µg/mL (≈ 0.0764 µM) | 4 µg/mL (≈ 4.93 µM) | 1 | 2 - 8 | 1 - 4 | 1 to 2 µg/mL (≈ 1.23 to 2.46 µM) | 0.125 to 0.25 µg/mL (≈ 0.154 to 0.308 µM) | 0.031 µg/mL (≈ 0.0382 µM) | 0.25 µg/mL (≈ 0.308 µM) | 2 - 4 | > 256 µg/mL | MIC (Moraxella catarrhalis [5]): 0.25 µg/mL (≈ 0.308 µM); MBC (Moraxella catarrhalis [7]): 0.5 µg/mL (≈ 0.616 µM); Ratio (Streptococcus pneumoniae [9]): 1 - 2; MBC (Streptococcus pyogenes [10]): 1 µg/mL (≈ 1.23 µM); MBC (Moraxella catarrhalis [12]): 0.25 µg/mL (≈ 0.308 µM); Ratio (Moraxella catarrhalis [13]): 1; Ratio (Moraxella catarrhalis [15]): 4; Ratio (Streptococcus pyogenes [20]): 2; MIC (Moraxella catarrhalis [26]): 0.125 µg/mL (≈ 0.154 µM)
2 | CC[C@H]1OC(=O)[C@H](C)C(=O)[C@H](C)[C@@H](O[C@@H]2O[C@H](C)C[C@H](N(C)C)[C@H]2O)[C@](C)(OC)C[C@@H](C)/C(=N\OC/C=C/c2cnc3ccccc3c2)[C@H](C)[C@H]2OC(=O)O[C@@]21C | 0.016 µg/mL (≈ 0.0201 µM) | > 256 µg/mL | 8 to 32 µg/mL (≈ 10.1 to 40.2 µM) | >8 | 0.5 µg/mL (≈ 0.628 µM) | > 0.5 µg/mL | 32 µg/mL (≈ 40.2 µM) | ≤ 0.008 µg/mL | 64 µg/mL (≈ 80.4 µM) | 0.062 µg/mL (≈ 0.0779 µM) | 64 to 128 µg/mL (≈ 80.4 to 161 µM) | >4 | >8 | >=4 - 8 | > 8 µg/mL | 1 µg/mL (≈ 1.26 µM) | 0.031 µg/mL (≈ 0.0389 µM) | 0.25 µg/mL (≈ 0.314 µM) | 2 | 32 µg/mL (≈ 40.2 µM) | MIC (Moraxella catarrhalis [5]): 2 µg/mL (≈ 2.51 µM); Ratio (Staphylococcus aureus [30]): 1; Ratio (Streptococcus pneumoniae [9]): >=4; MBC (Streptococcus pyogenes [10]): > 0.125 µg/mL; MBC (Moraxella catarrhalis [12]): 2 µg/mL (≈ 2.51 µM); Ratio (Moraxella catarrhalis [13]): 1; Ratio (Streptococcus pyogenes [20]): >8
3 | CC[C@H]1OC(=O)[C@H](C)[C@@H](O[C@H]2C[C@@](C)(OC)[C@@H](O)[C@H](C)O2)[C@H](C)[C@@H](O[C@@H]2O[C@H](C)C[C@H](N(C)C)[C@H]2O)[C@](C)(OC)C[C@@H](C)C(=O)[C@H](C)[C@@H](O)[C@]1(C)O [CLARITHROMYCIN] | 16 µg/mL (≈ 21.4 µM) | 32 µg/mL (≈ 42.8 µM) | 1 to 8 µg/mL (≈ 1.34 to 10.7 µM) | >2 - 8 | 8 µg/mL (≈ 10.7 µM) | > 8 µg/mL | > 256 µg/mL | 0.031 to 0.062 µg/mL (≈ 0.0414 to 0.0829 µM) | 16 µg/mL (≈ 21.4 µM) | 1 µg/mL (≈ 1.34 µM) | 8 to 16 µg/mL (≈ 10.7 to 21.4 µM) | 2 | >8 | 2 - 8 | 16 to 256 µg/mL (≈ 21.4 to 342 µM) | 8 to 32 µg/mL (≈ 10.7 to 42.8 µM) | 0.062 to 0.125 µg/mL (≈ 0.0829 to 0.167 µM) | 4 µg/mL (≈ 5.35 µM) | 2 | > 256 µg/mL | MIC (Moraxella catarrhalis [5]): 0.125 µg/mL (≈ 0.167 µM); MBC (Moraxella catarrhalis [7]): 0.125 µg/mL (≈ 0.167 µM); MBC (Streptococcus pyogenes [10]): 32 µg/mL (≈ 42.8 µM); MBC (Moraxella catarrhalis [12]): 0.25 µg/mL (≈ 0.334 µM); Ratio (Moraxella catarrhalis [13]): 2; Ratio (Moraxella catarrhalis [15]): 4; Ratio (Streptococcus pyogenes [20]): 2; MIC (Moraxella catarrhalis [26]): 0.031 µg/mL (≈ 0.0414 µM)
4 | CC[C@H]1OC(=O)[C@@](C)(F)C(=O)[C@H](C)[C@@H](O[C@@H]2O[C@H](C)C[C@H](N(C)C)[C@H]2O)[C@](C)(OC)C[C@@H](C)/C(=N\OC/C=C/c2cncc(N)c2)[C@H](C)[C@H]2OC(=O)O[C@@]21C |  | 32 µg/mL (≈ 41.1 µM) | 16 µg/mL (≈ 20.5 µM) | >8 | 1 µg/mL (≈ 1.28 µM) | > 0.5 µg/mL | > 256 µg/mL | 0.125 µg/mL (≈ 0.16 µM) | 32 µg/mL (≈ 41.1 µM) | 0.062 µg/mL (≈ 0.0796 µM) | 32 µg/mL (≈ 41.1 µM) | 1 | >8 | 2 | > 4 µg/mL | 0.5 µg/mL (≈ 0.642 µM) | 0.25 µg/mL (≈ 0.321 µM) | 0.5 µg/mL (≈ 0.642 µM) | 2 | > 256 µg/mL | MBC (Moraxella catarrhalis [7]): > 0.25 µg/mL; Ratio (Moraxella catarrhalis [15]): >8; MIC (Moraxella catarrhalis [26]): 0.031 µg/mL (≈ 0.0398 µM)
5 | CC[C@H]1OC(=O)[C@@](C)(F)C(=O)[C@H](C)[C@@H](O[C@@H]2O[C@H](C)C[C@H](N(C)C)[C@H]2O)[C@](C)(OC)C[C@@H](C)/C(=N\OC/C=C/c2cncc(C(N)=O)c2)[C@H](C)[C@H]2OC(=O)O[C@@]21C |  | 32 µg/mL (≈ 39.7 µM) | 16 µg/mL (≈ 19.8 µM) | 8 | 0.5 µg/mL (≈ 0.62 µM) | > 0.5 µg/mL | > 256 µg/mL | 0.062 µg/mL (≈ 0.0768 µM) | 16 µg/mL (≈ 19.8 µM) | 0.062 µg/mL (≈ 0.0768 µM) | 16 µg/mL (≈ 19.8 µM) | 2 | >8 | 1 | 8 µg/mL (≈ 9.91 µM) | 1 µg/mL (≈ 1.24 µM) | 0.125 µg/mL (≈ 0.155 µM) | 0.25 µg/mL (≈ 0.31 µM) | 2 | > 256 µg/mL | MBC (Moraxella catarrhalis [7]): > 0.5 µg/mL; Ratio (Moraxella catarrhalis [15]): >8; MIC (Moraxella catarrhalis [26]): 0.062 µg/mL (≈ 0.0768 µM)
6 | CC[C@H]1OC(=O)[C@@](C)(F)C(=O)[C@H](C)[C@@H](O[C@@H]2O[C@H](C)C[C@H](N(C)C)[C@H]2O)[C@](C)(OC)C[C@@H](C)/C(=N\OCC#Cc2cncc3ccccc23)[C@H](C)[C@H]2OC(=O)O[C@@]21C | 0.031 µg/mL (≈ 0.0382 µM) |  | 8 µg/mL (≈ 9.85 µM) | >8 | 1 µg/mL (≈ 1.23 µM) | > 0.5 µg/mL | 32 µg/mL (≈ 39.4 µM) | ≤ 0.008 µg/mL |  | 0.062 µg/mL (≈ 0.0764 µM) | > 64 µg/mL |  | >8 | >8 | > 8 µg/mL | 1 µg/mL (≈ 1.23 µM) | 0.031 µg/mL (≈ 0.0382 µM) | 0.25 µg/mL (≈ 0.308 µM) | 4 | 128 µg/mL (≈ 158 µM) | MIC (Moraxella catarrhalis [5]): 1 µg/mL (≈ 1.23 µM); Ratio (Staphylococcus aureus [30]): 4; Ratio (Streptococcus pneumoniae [9]): >=4; MBC (Streptococcus pyogenes [10]): > 0.25 µg/mL; MBC (Moraxella catarrhalis [12]): 2 µg/mL (≈ 2.46 µM); Ratio (Moraxella catarrhalis [13]): 2; Ratio (Streptococcus pyogenes [20]): >8

Source: ChEMBL document CHEMBL4004878, “Design, synthesis and structure-bactericidal activity relationships of novel 9-oxime ketolides and reductive epimers of acylides” (2017)
